Experimental data published in patent publication US10316039B2, “P2X3 and/or P2X2/3 compounds and methods” (Asana Biosciences, LLC, priority 2013, dated 2019).

Assays:
P2X3 = target: T1, P2X3 (UniProt P56373); test: P2X3 FLIPR intracellular calcium assay; format: cell-based; settings: agonist at EC75, species (human or rat) not given
T1 sequence (P56373 1-397): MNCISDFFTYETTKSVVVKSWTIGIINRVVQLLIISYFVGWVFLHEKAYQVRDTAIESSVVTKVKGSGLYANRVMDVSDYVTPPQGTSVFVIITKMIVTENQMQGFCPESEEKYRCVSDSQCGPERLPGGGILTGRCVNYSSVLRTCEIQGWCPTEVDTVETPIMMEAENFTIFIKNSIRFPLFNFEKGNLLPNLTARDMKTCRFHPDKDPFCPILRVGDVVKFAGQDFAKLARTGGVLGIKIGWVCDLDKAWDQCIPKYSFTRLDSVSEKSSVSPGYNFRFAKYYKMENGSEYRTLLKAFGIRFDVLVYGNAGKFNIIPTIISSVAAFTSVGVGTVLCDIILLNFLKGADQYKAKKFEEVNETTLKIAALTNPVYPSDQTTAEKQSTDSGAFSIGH
Method in brief: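 Human P2X3-HEK, human P2X2/3-TRex293, rat P2X2/3-TRex293 or rat P2X3 TRex-CHO cells loaded with Calcium 4 dye (1.8 mM probenecid, pH 7.4).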

P2X2/3 = target: T2, P2X2/3 (Homo sapiens, UniProt P56373+Q9UBL9); test: P2X2/3 FLIPR intracellular calcium assay; format: cell-based; settings: agonist at EC75, species (human or rat) not given
T2 sequence (Q9UBL9 1-471): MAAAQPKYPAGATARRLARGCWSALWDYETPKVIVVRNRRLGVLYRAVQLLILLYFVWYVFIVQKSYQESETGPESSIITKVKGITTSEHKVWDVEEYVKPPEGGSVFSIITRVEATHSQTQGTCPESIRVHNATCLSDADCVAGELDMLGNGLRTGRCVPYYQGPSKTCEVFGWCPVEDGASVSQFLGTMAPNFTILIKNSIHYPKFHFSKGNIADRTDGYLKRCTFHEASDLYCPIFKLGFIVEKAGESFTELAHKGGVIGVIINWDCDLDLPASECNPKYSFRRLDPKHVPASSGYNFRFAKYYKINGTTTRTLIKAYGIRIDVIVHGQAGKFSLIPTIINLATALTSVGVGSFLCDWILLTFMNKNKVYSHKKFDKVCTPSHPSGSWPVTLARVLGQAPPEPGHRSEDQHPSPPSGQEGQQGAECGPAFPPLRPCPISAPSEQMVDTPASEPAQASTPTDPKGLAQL
T2 sequence (P56373 1-397): T1 sequence (P56373 1-397)
Method in brief: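 Stable human P2X2/3 TRex293 cells (doxycycline-induced) loaded with Calcium 4 dye; compounds, 11-point half-log series from 2 mM top stock, preincubated 15 min at RT in HBSS/HEPES pH 7.4 with 1.8 mM CaCl2. Agonist added at EC75; fluorescence change versus no-compound wells gave IC50.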

Structure (SMILES) | IC50 (P2X3) [nM] | IC50 (P2X2/3) [nM]
Cc1noc(C)c1-c1cc(C(=O)N[C@@H](C)c2nnc[nH]2)cn2c(-c3ccc(Cl)s3)cnc12 [Example 107] | 1 to 100 | 1 to 100
CC[C@H](NC(=O)c1cc(-c2c(C)noc2C)c2ncc(-c3ccc(C)s3)n2c1)c1nnc[nH]1 [Example 108] | 1 to 100 | 1 to 100
Cc1cnc(-c2cnc3c(-c4c(C)noc4C)cc(C(=O)N[C@@H](C)c4nnc[nH]4)cn23)s1 [Example 109] | 1 to 100 | 100 to 1000
Cc1ccc(-c2cnc3c(-c4c(C)n[nH]c4C)cc(C(=O)N[C@@H](C)c4nnc[nH]4)cn23)s1 [Example 110] | 1 to 100 | 1 to 100
Cc1ncc(CNC(=O)c2cc(-c3c(C)n[nH]c3C)c3ncc(-c4ccc(C)s4)n3c2)cn1 [Example 111] | > 10000 | 1 to 100
Cc1ccc(-c2cnc3c(-c4cnn(CC(N)=O)c4)cc(C(=O)N[C@@H](C)c4nnc[nH]4)cn23)s1 [Example 112] | 100 to 1000 | 1000 to 10000
Cc1ccc(CNC(=O)c2cc(N3CCC(C)CC3)c3ncc(-c4ccc(C)s4)n3c2)cn1 [Example 115] | 1000 to 10000 | 100 to 1000
Cc1cnc(CNC(=O)c2cc(N3CCC(C)CC3)c3ncc(-c4ccc(C)s4)n3c2)cn1 [Example 116] | 1000 to 10000 | 100 to 1000
CC1CCN(c2cc(C(=O)N[C@@H](C)c3nnc[nH]3)cn3c(-c4ccc(Cl)s4)cnc23)CC1 [Example 118] | 100 to 1000 | 100 to 1000
Cc1ccc(-c2cnc3c(NC4CCCCC4)cc(C(=O)N[C@@H](C)c4nnc[nH]4)cn23)s1 [Example 121] | 100 to 1000 | 100 to 1000
Cc1ccc(-c2cnc3c(N4CCC(C)CC4)cc(C(=O)NCc4ccn(C)c(=O)c4)cn23)s1 [Example 128] | 1 to 100 | 100 to 1000
Cc1ccc(-c2cnc3c(N4CCC(C)(C)CC4)cc(C(=O)N[C@@H](C)c4nnc[nH]4)cn23)s1 [Example 129] | 1 to 100 | 100 to 1000
Cc1ccc(-c2cnc3c(N4CCC(F)(F)CC4)cc(C(=O)N[C@@H](C)c4nnc[nH]4)cn23)s1 [Example 130] | 1 to 100 | 1 to 100
Cc1ccc(-c2cnc3c(N4CCC(CF)CC4)cc(C(=O)N[C@@H](C)c4nnc[nH]4)cn23)s1 [Example 133] | 1 to 100 | 100 to 1000
Cc1ccc(-c2cnc3c(N4CCC(C(F)(F)F)CC4)cc(C(=O)N[C@@H](C)c4nnc[nH]4)cn23)s1 [Example 134] | 1 to 100 | 1000 to 10000
Cc1ccc(-c2cnc3c(NC4CCCC4)cc(C(=O)N[C@@H](C)c4nnc[nH]4)cn23)s1 [Example 135] | 100 to 1000 | 100 to 1000
Cc1csc(-c2cnc3c(N4CCC(F)(F)CC4)cc(C(=O)N[C@@H](C)c4nnc[nH]4)cn23)c1 [Example 136] | 1 to 100 | 100 to 1000
Cc1ccc(-c2cnc3c(N4CCC(F)CC4)cc(C(=O)N[C@@H](C)c4nnc[nH]4)cn23)s1 [Example 137] | 1 to 100 | 100 to 1000
COC1CCN(c2cc(C(=O)N[C@@H](C)c3nnc[nH]3)cn3c(-c4ccc(C)s4)cnc23)C1 (stereo partly shown) [Example 138] | 1 to 100 | 100 to 1000
COC1(C)CCN(c2cc(C(=O)N[C@@H](C)c3nnc[nH]3)cn3c(-c4ccc(C)s4)cnc23)CC1 [Example 139] | 1 to 100 | 100 to 1000
COC1CCN(c2cc(C(=O)N[C@@H](C)c3nnc[nH]3)cn3c(-c4ccc(C)s4)cnc23)CC1 [Example 140] | 1 to 100 | 100 to 1000
COC1CCCN(c2cc(C(=O)N[C@@H](C)c3nnc[nH]3)cn3c(-c4ccc(C)s4)cnc23)C1 (stereo partly shown) [Example 141] | 1 to 100 | 100 to 1000

Structure (SMILES) | IC50 (P2X3) [nM] | IC50 (P2X2/3) [nM]
COC1(C)CCN(c2cc(C(=O)N[C@@H](C)c3nnc[nH]3)cn3c(-c4ccc(C)s4)cnc23)C1 (stereo partly shown) [Example 142] | 1 to 100 | 100 to 1000
CC[C@H](NC(=O)c1cc(N2CCC(F)(F)CC2)c2ncc(-c3ccc(C)s3)n2c1)c1nnc[nH]1 [Example 144] | 100 to 1000 | 1 to 100
Cc1ccc(-c2cnc3c(N4CCC(F)(F)CC4)cc(C(=O)N[C@H](c4nnc[nH]4)C(C)C)cn23)s1 [Example 145] | 1000 to 10000 | 100 to 1000
CC[C@H](NC(=O)c1cc(N2CCC(OC)CC2)c2ncc(-c3ccc(C)s3)n2c1)c1nnc[nH]1 [Example 146] | 1 to 100 | 100 to 1000
Cc1ccc(CNC(=O)c2cc(N3CCC(C)(C(N)=O)CC3)c3ncc(-c4ccc(C)s4)n3c2)cn1 [Example 148] | 1 to 100 | 1 to 100
Cc1cccc(-c2cnc3c(N4CCC(C)CC4)cc(C(=O)N[C@@H](C)c4ncn[nH]4)cn23)c1 [Example 149] | 100 to 1000 | 1000 to 10000
Cc1ccccc1-c1cnc2c(N3CCC(C)CC3)cc(C(=O)NCc3ccc(C)[n+]([O-])c3)cn12 [Example 150] | 1 to 100 | 100 to 1000
Cc1ccc(CNC(=O)c2cc(-n3nnnc3C(C)C)c3ncc(-c4ccc(C)s4)n3c2)cn1 [Example 151] | 1 to 100 | 100 to 1000
Cc1ccc(-c2cnc3c(-n4nnnc4C(C)C)cc(C(=O)NCc4ccc(C(F)(F)F)nc4)cn23)s1 [Example 152] | > 10000 | 100 to 1000
CCc1nnnn1-c1cc(C(=O)NCc2ccc(C)nc2)cn2c(-c3ccc(C)s3)cnc12 [Example 153] | > 10000 | 1 to 100
CCc1nnnn1-c1cc(C(=O)NCc2ccc(C3CC3)nc2)cn2c(-c3ccc(C)s3)cnc12 [Example 154] | 100 to 1000 | 100 to 1000
Cc1ccc(CNC(=O)c2cc(-n3nnnc3C3CCC3)c3ncc(-c4ccc(C)s4)n3c2)cn1 [Example 155] | > 10000 | 1 to 100
Cc1ccc(CNC(=O)c2cc(-n3nnnc3CC3CC3)c3ncc(-c4ccc(C)s4)n3c2)cn1 [Example 156] | > 10000 | 1 to 100
Cc1ccc(CNC(=O)c2cc(-n3nnnc3C)c3ncc(-c4ccc(C)s4)n3c2)cn1 [Example 157] | 1 to 100 | 100 to 1000
CCCc1nnnn1-c1cc(C(=O)NCc2ccc(C)nc2)cn2c(-c3ccc(C)s3)cnc12 [Example 158] | > 10000 | 1 to 100
Cc1ccc(-c2cnc3c(-n4nnnc4C(C)C)cc(C(=O)NC(C)c4cnccn4)cn23)s1 (stereo not shown) [Example 159] | 100 to 1000 | 1000 to 10000
Cc1ccc(-c2cnc3c(-n4nnnc4C4CCC4)cc(C(=O)NC(C)c4cnccn4)cn23)s1 (stereo not shown) [Example 160] | > 10000 | 100 to 1000
Cc1ccc(-c2cnc3c(-n4nnnc4C4CCC4)cc(C(=O)NCc4ccn(C)c(=O)c4)cn23)s1 [Example 161] | > 10000 | 1 to 100
CCc1nnnn1-c1cc(C(=O)NC(C)c2cnccn2)cn2c(-c3ccc(C)s3)cnc12 (stereo not shown) [Example 162] | 1 to 100 | 1000 to 10000
Cc1cnc(CNC(=O)c2cc(-n3nnnc3C3CCC3)c3ncc(-c4ccc(C)s4)n3c2)cn1 [Example 164] | > 10000 | 1 to 100
Cc1ccc(-c2cnc3c(-n4nnnc4CC4CC4)cc(C(=O)N[C@@H](C)c4nnc[nH]4)cn23)s1 [Example 166] | 1 to 100 | 1 to 100
Cc1ccc(-c2cnc3c(-n4nnnc4C(F)F)cc(C(=O)N[C@@H](C)c4nnc[nH]4)cn23)s1 [Example 168] | 1 to 100 | 1 to 100
